# Results from patent US20040063685A1, “Combination Drugs” (priority 2000, published 2004).
# Key:
# [1] = crystals
# E. coli O111 strain = test: Survival of mice intraperitoneally inoculated with E. coli O111, combined use with ceftazidime; assay type: in vivo; settings: FIG. 1
# Protocol: The E. coli O111 strain was suspended in 5% mucin, and 0.5 ml thereof was intraperitoneally inoculated to mice (BALB/c, male, 5-week-old) (9×10^4 CFU per mouse). At 1 hr after inoculation, an antibacterial agent, ceftazidime (CAZ, 12.5 μg/kg) was administered subcutaneously, and compound 29 (test compound 30 mg/kg) of Reference Example B65 suspended in a 0.5% methyl cellulose (MC) solution was simultaneously administered orally.
SMILES,hygroscopicity [1],"survival rate (E. coli O111 strain; combined use: compound 29 30 mg/kg orally (0.5% methyl cellulose) and ceftazidime (CAZ) 12.5 μg/kg subcutaneously at 1 hr after inoculation, BALB/c male mice, 9×10^4 CFU per mouse, monitored for a week)","effectiveness of test compound alone (survival) (E. coli O111 strain; compound 29 30 mg/kg orally without ceftazidime, BALB/c mice infected with E. coli O111)"
"CCOC(=O)C1=CCCCC1S(=O)(=O)Nc1ccc(F)cc1Cl (stereo not drawn) [crystals of compound B, d-ethyl 6-[N-(2-chloro-4-fluorophenyl)sulfamoyl]-1-cyclohexene-1-carboxylate]",low,–,–
"CCOC(=O)C1=CCCCC1S(=O)(=O)Nc1ccc(F)cc1Cl (stereo not drawn) [compound 29, ethyl 6-[N-(2-chloro-4-fluorophenyl)sulfamoyl]-1-cyclohexene-1-carboxylate]",–,remarkably increases,low effectiveness
